ChEMBL document CHEMBL3860058, “Sterol-dependent membrane association of the marine sponge-derived bicyclic peptide Theonellamide A as examined by 1H NMR” (Bioorg Med Chem, 2016)
The source made the active and inactive calls. No cut-off for these calls is given here.

Key:
[1] = Cytotoxicity against mouse P388 cells; type: functional, cell-based
[2] = Antifungal activity against Trichophyton assessed as growth inhibition using alamar blue staining measured after 14 to 16 hrs by microdilution assay; type: functional
[3] = Antifungal activity against wild-type Candida albicans ATCC 32354 assessed as growth inhibition using alamar blue staining measured after 14 to 16 hrs by microdilution assay; type: functional
Aspergillus = assay: Antifungal activity against Aspergillus assessed as growth inhibition using alamar blue staining measured after 14 to 16 hrs by microdilution assay; type: functional
[4] = Aqueous diffusion coefficient of compound in 98:2 ratio of D2O/H2O solvent system at 25 degC by 1H NMR DOSY spectroscopy; type: physicochemical; conditions: buffer
[5] = Diffusion coefficient of the compound D2O at 11 mM and 25 degC by 1H NMR spectroscopy; type: physicochemical; conditions: 11000 µM
[6] = Binding affinity to cholesterol containing DMPC-d54/DHPC-d22 bicelles assessed as […] measured at ratio of 1:10 Mn2+ to compound by 1H NMR spectroscopy relative to control
Lipid bilayer = assay: Binding affinity to POPC large unilamellar vesicle in pH 7.4 phosphate buffer by SPR analysis
[7] = Induction of membrane damage in POPC/cholesterol GUV model assessed as membrane curvature at 20 uM after 13 to 55 mins by TNM-DCCH staining based confocal microscopic analysis
[8] = Binding affinity to cholesterol containing DMPC-d54/DHPC-d22 bicelles assessed as broadening of aromatic/olefinic signals at 6.5 to 7.6 ppm measured at 200 uM by 1H NMR spectroscopy
[9] = Binding affinity to cholesterol containing DMPC-d54/DHPC-d22 bicelles assessed as […] measured at ratio of 4:10 Mn2+ to compound by 1H NMR spectroscopy relative to control
[10] = Binding affinity to cholesterol containing POPC large unilamellar vescicle in pH 7.4 phosphate buffer by SPR analysis
[11] = Binding affinity to DMPC-d54/DHPC-d22 bicelles assessed as […] measured at ratio of 4:10 Mn2+ to compound by 1H NMR spectroscopy relative to control

SMILES | IC50 [1] | IC50 [2] | IC50 [3] | IC50 (Aspergillus) | D [4] | D [5] | Ratio [6] | Kd (Lipid bilayer) | Activity [7] | Activity [8] | Ratio [9] | Kd [10] | Ratio [11]
CC(/C=C/c1ccc(Br)cc1)=C\[C@H](O)[C@@H]1CC(=O)N[C@@H](CO)C(=O)N[C@@H]2C[n+]3c[nH]c(c3)C[C@H](NC(=O)C[C@H](O)C[C@@H](C(=O)[O-])NC(=O)CCNC(=O)[C@H](Cc3ccc(Br)cc3)NC(=O)[C@H]([C@@H](O)C(N)=O)NC(=O)[C@H](CC(N)=O)NC2=O)C(=O)N[C@@H]([C@H](C)O)C(=O)N[C@@H](CO)C(=O)N[C@@H](Cc2ccccc2)C(=O)N1 | 500 to 2800 nM | 2000 to 7000 nM | 2000 to 7000 nM | 2000 to 7000 nM | – | – | – | – | – | – | – | – | –
CC(/C=C/c1ccc(Br)cc1)=C\[C@H](O)[C@@H]1CC(=O)N[C@@H](CO)C(=O)N[C@@H]2C[n+]3c[nH]c(c3)C[C@H](NC(=O)C[C@H](O)C[C@@H](C(=O)[O-])NC(=O)[C@@H](O)CNC(=O)[C@H]([C@@H](C)c3ccc(Br)cc3)NC(=O)[C@H]([C@@H](O)C(N)=O)NC(=O)[C@H](CC(N)=O)NC2=O)C(=O)N[C@@H]([C@H](C)O)C(=O)N[C@@H](CO)C(=O)N[C@@H](Cc2ccccc2)C(=O)N1 | 500 to 2800 nM | 2000 to 7000 nM | 2000 to 7000 nM | 2000 to 7000 nM | – | – | – | – | – | – | – | – | –
CC(/C=C/c1ccc(Br)cc1)=C\[C@H](O)[C@@H]1CC(=O)N[C@@H](CO)C(=O)N[C@@H]2Cn3cc([n+]([C@H]4OC[C@H](O)[C@H](O)[C@H]4O)c3)C[C@H](NC(=O)C[C@H](O)C[C@@H](C(=O)[O-])NC(=O)CCNC(=O)[C@H](Cc3ccc(Br)cc3)NC(=O)[C@H]([C@@H](O)C(N)=O)NC(=O)[C@H](CC(N)=O)NC2=O)C(=O)N[C@@H]([C@H](C)O)C(=O)N[C@@H](CO)C(=O)N[C@@H](Cc2ccccc2)C(=O)N1 | 500 to 2800 nM | 2000 to 7000 nM | 2000 to 7000 nM | 2000 to 7000 nM | – | – | – | – | – | – | – | – | –
CC(/C=C/c1ccc(Br)cc1)=C\[C@H](O)[C@@H]1CC(=O)N[C@@H](CO)C(=O)N[C@@H]2C[n+]3c[nH]c(c3)C[C@H](NC(=O)C[C@H](O)C[C@@H](C(=O)[O-])NC(=O)CCNC(=O)[C@H](Cc3ccccc3)NC(=O)[C@H]([C@@H](O)C(N)=O)NC(=O)[C@H](CC(N)=O)NC2=O)C(=O)N[C@@H]([C@H](C)O)C(=O)N[C@@H](CO)C(=O)N[C@@H](Cc2ccccc2)C(=O)N1 | 500 to 2800 nM | 2000 to 7000 nM | 2000 to 7000 nM | 2000 to 7000 nM | – | – | – | – | – | – | – | – | –
OC[C@H]1O[C@@H]2O[C@H]3[C@H](O)[C@@H](O)[C@@H](O[C@H]4[C@H](O)[C@@H](O)[C@@H](O[C@H]5[C@H](O)[C@@H](O)[C@@H](O[C@H]6[C@H](O)[C@@H](O)[C@@H](O[C@H]7[C@H](O)[C@@H](O)[C@@H](O[C@H]8[C@H](O)[C@@H](O)[C@@H](O[C@H]1[C@H](O)[C@H]2O)O[C@@H]8CO)O[C@@H]7CO)O[C@@H]6CO)O[C@@H]5CO)O[C@@H]4CO)O[C@@H]3CO [BETADEX] | – | – | – | – | 2.63 ×10⁻¹⁰ m2/s | 2.64 ×10⁻¹⁰ m2/s | – | – | – | – | – | – | –
CC(/C=C/c1ccc(Br)cc1)=C\[C@H](O)[C@@H]1CC(=O)N[C@@H](CO)C(=O)N[C@@H]2Cn3cc([n+]([C@@H]4O[C@H](CO)[C@H](O)[C@H](O)[C@H]4O)c3)C[C@H](NC(=O)C[C@H](O)C[C@@H](C(=O)[O-])NC(=O)CCNC(=O)[C@H](Cc3ccc(Br)cc3)NC(=O)[C@H]([C@@H](O)C(N)=O)NC(=O)[C@H](CC(N)=O)NC2=O)C(=O)N[C@@H]([C@H](C)O)C(=O)N[C@@H](CO)C(=O)N[C@@H](Cc2ccccc2)C(=O)N1 | 500 to 2800 nM | 2000 to 7000 nM | 2000 to 7000 nM | 2000 to 7000 nM | – | – | – | – | – | – | – | – | –
CC(/C=C/c1ccccc1)=C\[C@H](O)[C@@H]1CC(=O)N[C@@H](CO)C(=O)N[C@@H]2Cn3cc([n+]([C@@H]4O[C@H](CO)[C@H](O)[C@H](O)[C@H]4O)c3)C[C@H](NC(=O)C[C@H](O)C[C@@H](C(=O)[O-])NC(=O)[C@@H](O)CNC(=O)[C@H]([C@@H](C)c3ccc(Br)cc3)NC(=O)[C@H]([C@@H](O)C(N)=O)NC(=O)[C@H](CC(N)=O)NC2=O)C(=O)N[C@@H]([C@H](C)O)C(=O)N[C@@H](CO)C(=O)N[C@@H](Cc2ccccc2)C(=O)N1 | 500 to 2800 nM | 2000 to 7000 nM | 2000 to 7000 nM | 2000 to 7000 nM | – | – | 0.85 | 420000 nM | Active | Active | 0.54 to 0.61 | 9200 nM | 0.36 to 0.46
